Reference: ChEMBL document CHEMBL3046001, “4-Thiazolidinone and 1-thia-3,4,9-triaza fluorene conjugates: synthesis, characterization and antimicrobial screening” (2013)
In brackets after ≈: the same amount, converted by molar mass. Activity calls are given as the source filed them. The rule behind the calls is not given here.

Legend:
Format in all cases: functional
Micrococcus luteus [1] = assay: Antibacterial activity against Micrococcus luteus MTCC 1538 assessed as growth inhibition after 24 hr by tube dilution method; conditions: MTCC 1538, 24 h
Pseudomonas aeruginosa [2] = assay: Antibacterial activity against Pseudomonas aeruginosa MTCC 424 assessed as growth inhibition after 24 hr by tube dilution method; conditions: MTCC 424, 24 h
Pseudomonas fluorescens [3] = assay: Antibacterial activity against Pseudomonas fluorescens MTCC 2421 assessed as growth inhibition after 24 hr by tube dilution method; conditions: MTCC 2421, 24 h
Escherichia coli [4] = assay: Antibacterial activity against Escherichia coli MTCC 1573 assessed as growth inhibition after 24 hr by tube dilution method; conditions: MTCC 1573, 24 h
Bacillus pumilus [5] = assay: Antibacterial activity against Bacillus pumilus MTCC 1456 assessed as growth inhibition after 24 hr by tube dilution method; conditions: MTCC 1456, 24 h
Bacillus subtilis [6] = assay: Antibacterial activity against Bacillus subtilis MTCC 441 assessed as growth inhibition after 24 hr by tube dilution method; conditions: MTCC 441, 24 h
Bacillus subtilis [7] = assay: Antibacterial activity against Bacillus subtilis MTCC 441 assessed as growth inhibition at 1250 ug/mL after 48 hr by agar diffusion method; conditions: MTCC 441, 48 h, read-out: DIZ
Bacillus subtilis [8] = assay: Antibacterial activity against Bacillus subtilis MTCC 441 assessed as growth inhibition at 1000 ug/mL after 48 hr by agar diffusion method; conditions: MTCC 441, 48 h, read-out: DIZ
Bacillus subtilis [9] = assay: Antibacterial activity against Bacillus subtilis MTCC 441 assessed as growth inhibition at 750 ug/mL after 48 hr by agar diffusion method; conditions: MTCC 441, 48 h, read-out: DIZ
Bacillus subtilis [10] = assay: Antibacterial activity against Bacillus subtilis MTCC 441 assessed as growth inhibition at 500 ug/mL after 48 hr by agar diffusion method; conditions: MTCC 441, 48 h, read-out: DIZ
Bacillus subtilis [11] = assay: Antibacterial activity against Bacillus subtilis MTCC 441 assessed as growth inhibition at 100 ug/mL after 48 hr by agar diffusion method
Penicillium chrysogenum [12] = assay: Antifungal activity against Penicillium chrysogenum MTCC 161 assessed as growth inhibition at 1000 ug/mL after 48 hr by agar diffusion method; conditions: MTCC 161, 48 h, read-out: DIZ
Penicillium chrysogenum [13] = assay: Antifungal activity against Penicillium chrysogenum MTCC 161 assessed as growth inhibition at 750 ug/mL after 48 hr by agar diffusion method; conditions: MTCC 161, 48 h, read-out: DIZ
Penicillium chrysogenum [14] = assay: Antifungal activity against Penicillium chrysogenum MTCC 161 assessed as growth inhibition at 500 ug/mL after 48 hr by agar diffusion method; conditions: MTCC 161, 48 h, read-out: DIZ
Aspergillus niger [15] = assay: Antifungal activity against Aspergillus niger MTCC 2546 assessed as growth inhibition at 1250 ug/mL after 48 hr by agar diffusion method; conditions: MTCC 2546, 48 h, read-out: DIZ
Aspergillus niger [16] = assay: Antifungal activity against Aspergillus niger MTCC 2546 assessed as growth inhibition at 750 ug/mL after 48 hr by agar diffusion method; conditions: MTCC 2546, 48 h, read-out: DIZ
Pseudomonas fluorescens [17] = assay: Antibacterial activity against Pseudomonas fluorescens MTCC 2421 assessed as growth inhibition at 500 ug/mL after 48 hr by agar diffusion method; conditions: MTCC 2421, 48 h, read-out: DIZ
Micrococcus luteus [18] = assay: Antibacterial activity against Micrococcus luteus MTCC 1538 assessed as growth inhibition at 250 ug/mL after 48 hr by agar diffusion method
Bacillus pumilus [19] = assay: Antibacterial activity against Bacillus pumilus MTCC 1456 assessed as growth inhibition at 1250 ug/mL after 48 hr by agar diffusion method; conditions: MTCC 1456, 48 h, read-out: DIZ
Bacillus pumilus [20] = assay: Antibacterial activity against Bacillus pumilus MTCC 1456 assessed as growth inhibition at 1000 ug/mL after 48 hr by agar diffusion method; conditions: MTCC 1456, 48 h, read-out: DIZ
Bacillus pumilus [21] = assay: Antibacterial activity against Bacillus pumilus MTCC 1456 assessed as growth inhibition at 100 ug/mL after 48 hr by agar diffusion method; conditions: MTCC 1456, 48 h, read-out: DIZ
Staphylococcus aureus [22] = assay: Antibacterial activity against Staphylococcus aureus MTCC 1430 assessed as growth inhibition at 1250 ug/mL after 48 hr by agar diffusion method; conditions: MTCC 1430, 48 h, read-out: DIZ
Staphylococcus aureus [23] = assay: Antibacterial activity against Staphylococcus aureus MTCC 1430 assessed as growth inhibition at 1000 ug/mL after 48 hr by agar diffusion method; conditions: MTCC 1430, 48 h, read-out: DIZ
Staphylococcus aureus [24] = assay: Antibacterial activity against Staphylococcus aureus MTCC 1430 assessed as growth inhibition at 750 ug/mL after 48 hr by agar diffusion method; conditions: MTCC 1430, 48 h, read-out: DIZ
Staphylococcus aureus [25] = assay: Antibacterial activity against Staphylococcus aureus MTCC 1430 assessed as growth inhibition at 500 ug/mL after 48 hr by agar diffusion method; conditions: MTCC 1430, 48 h, read-out: DIZ
Staphylococcus aureus [26] = assay: Antibacterial activity against Staphylococcus aureus MTCC 1430 assessed as growth inhibition at 250 ug/mL after 48 hr by agar diffusion method; conditions: MTCC 1430, 48 h, read-out: DIZ
Pseudomonas aeruginosa [27] = assay: Antibacterial activity against Pseudomonas aeruginosa MTCC 424 assessed as growth inhibition at 250 ug/mL after 48 hr by agar diffusion method; conditions: MTCC 424, 48 h, read-out: DIZ
Pseudomonas aeruginosa [28] = assay: Antibacterial activity against Pseudomonas aeruginosa MTCC 424 assessed as growth inhibition at 100 ug/mL after 48 hr by agar diffusion method; conditions: MTCC 424, 48 h, read-out: DIZ
Micrococcus luteus [29] = assay: Antibacterial activity against Micrococcus luteus MTCC 1538 assessed as growth inhibition at 1250 ug/mL after 48 hr by agar diffusion method; conditions: MTCC 1538, 48 h, read-out: DIZ
Micrococcus luteus [30] = assay: Antibacterial activity against Micrococcus luteus MTCC 1538 assessed as growth inhibition at 1000 ug/mL after 48 hr by agar diffusion method; conditions: MTCC 1538, 48 h, read-out: DIZ
Micrococcus luteus [31] = assay: Antibacterial activity against Micrococcus luteus MTCC 1538 assessed as growth inhibition at 750 ug/mL after 48 hr by agar diffusion method; conditions: MTCC 1538, 48 h, read-out: DIZ
Pseudomonas fluorescens [32] = assay: Antibacterial activity against Pseudomonas fluorescens MTCC 2421 assessed as growth inhibition at 100 ug/mL after 48 hr by agar diffusion method; conditions: MTCC 2421, 48 h, read-out: DIZ
Escherichia coli [33] = assay: Antibacterial activity against Escherichia coli MTCC 1573 assessed as growth inhibition at 1250 ug/mL after 48 hr by agar diffusion method; conditions: MTCC 1573, 48 h, read-out: DIZ
Escherichia coli [34] = assay: Antibacterial activity against Escherichia coli MTCC 1573 assessed as growth inhibition at 750 ug/mL after 48 hr by agar diffusion method; conditions: MTCC 1573, 48 h, read-out: DIZ
Escherichia coli [35] = assay: Antibacterial activity against Escherichia coli MTCC 1573 assessed as growth inhibition at 500 ug/mL after 48 hr by agar diffusion method; conditions: MTCC 1573, 48 h, read-out: DIZ
Escherichia coli [36] = assay: Antibacterial activity against Escherichia coli MTCC 1573 assessed as growth inhibition at 250 ug/mL after 48 hr by agar diffusion method; conditions: MTCC 1573, 48 h, read-out: DIZ
Escherichia coli [37] = assay: Antibacterial activity against Escherichia coli MTCC 1573 assessed as growth inhibition at 100 ug/mL after 48 hr by agar diffusion method
Pseudomonas aeruginosa [38] = assay: Antibacterial activity against Pseudomonas aeruginosa MTCC 424 assessed as growth inhibition at 1000 ug/mL after 48 hr by agar diffusion method; conditions: MTCC 424, 48 h, read-out: DIZ
Pseudomonas aeruginosa [39] = assay: Antibacterial activity against Pseudomonas aeruginosa MTCC 424 assessed as growth inhibition at 500 ug/mL after 48 hr by agar diffusion method; conditions: MTCC 424, 48 h, read-out: DIZ

MIC (Micrococcus luteus [1])	MIC (Pseudomonas aeruginosa [2])	MIC (Pseudomonas fluorescens [3])	MIC (Escherichia coli [4])	MIC (Bacillus pumilus [5])	MIC (Bacillus subtilis [6])	Compound	zone of inhibition at 1250 µg/mL (Bacillus subtilis [7])	zone of inhibition at 1000 µg/mL (Bacillus subtilis [8])	zone of inhibition at 750 µg/mL (Bacillus subtilis [9])	zone of inhibition at 500 µg/mL (Bacillus subtilis [10])	zone of inhibition at 1000 µg/mL (Penicillium chrysogenum [12])	zone of inhibition at 750 µg/mL (Penicillium chrysogenum [13])	zone of inhibition at 500 µg/mL (Penicillium chrysogenum [14])	zone of inhibition at 1250 µg/mL (Aspergillus niger [15])	zone of inhibition at 750 µg/mL (Aspergillus niger [16])	zone of inhibition at 500 µg/mL (Pseudomonas fluorescens [17])	zone of inhibition at 1250 µg/mL (Bacillus pumilus [19])	zone of inhibition at 1000 µg/mL (Bacillus pumilus [20])	zone of inhibition at 100 µg/mL (Bacillus pumilus [21])	zone of inhibition at 1250 µg/mL (Staphylococcus aureus [22])	also measured
250 µg/mL (≈ 625 µM)	30 µg/mL (≈ 75 µM)	50 µg/mL (≈ 125 µM)	150 µg/mL (≈ 375 µM)	50 µg/mL (≈ 125 µM)	150 µg/mL (≈ 375 µM)	O=C1CSC(c2ccccn2)N1c1nnc2c3cc(Cl)ccc3nc-2s1 (stereo not drawn)	22 mm	19 mm	14 mm	9 mm	18 mm	15 mm	12 mm	20 mm	15 mm	11 mm	23 mm	20 mm	10 mm	17 mm	growth inhibition (GI) (Bacillus subtilis [11]): inactive; zone of inhibition at 250 µg/mL (Micrococcus luteus [18]; MTCC 1538, 48 h, read-out: DIZ): 7 mm; zone of inhibition at 1000 µg/mL (Staphylococcus aureus [23]): 13 mm; zone of inhibition at 750 µg/mL (Staphylococcus aureus [24]): 11 mm; zone of inhibition at 500 µg/mL (Staphylococcus aureus [25]): 9 mm; zone of inhibition at 250 µg/mL (Staphylococcus aureus [26]): 7 mm; zone of inhibition at 250 µg/mL (Pseudomonas aeruginosa [27]): 10 mm; zone of inhibition at 100 µg/mL (Pseudomonas aeruginosa [28]): 7 mm; zone of inhibition at 1250 µg/mL (Micrococcus luteus [29]): 19 mm; zone of inhibition at 1000 µg/mL (Micrococcus luteus [30]): 15 mm; zone of inhibition at 750 µg/mL (Micrococcus luteus [31]): 12 mm; zone of inhibition at 100 µg/mL (Pseudomonas fluorescens [32]): 7 mm; zone of inhibition at 1250 µg/mL (Escherichia coli [33]): 23 mm; zone of inhibition at 750 µg/mL (Escherichia coli [34]): 15 mm; zone of inhibition at 500 µg/mL (Escherichia coli [35]): 12 mm; zone of inhibition at 250 µg/mL (Escherichia coli [36]): 11 mm; growth inhibition (GI) (Escherichia coli [37]): inactive; zone of inhibition at 1000 µg/mL (Pseudomonas aeruginosa [38]): 18 mm; zone of inhibition at 500 µg/mL (Pseudomonas aeruginosa [39]): 13 mm
250 µg/mL (≈ 603 µM)	40 µg/mL (≈ 96.5 µM)	40 µg/mL (≈ 96.5 µM)	50 µg/mL (≈ 121 µM)	20 µg/mL (≈ 48.2 µM)	40 µg/mL (≈ 96.5 µM)	O=C1CSC(c2cccc3ccccc23)N1c1nnc2c3ccccc3nc-2s1 (stereo not drawn)	20 mm	17 mm	15 mm	13 mm	12 mm	10 mm	9 mm	19 mm	10 mm	14 mm	26 mm	20 mm	6 mm	18 mm	zone of inhibition at 100 µg/mL (Bacillus subtilis [11]; MTCC 441, 48 h, read-out: DIZ): 8 mm; growth inhibition (GI) (Micrococcus luteus [18]): inactive; zone of inhibition at 1000 µg/mL (Staphylococcus aureus [23]): 14 mm; zone of inhibition at 750 µg/mL (Staphylococcus aureus [24]): 12 mm; zone of inhibition at 500 µg/mL (Staphylococcus aureus [25]): 10 mm; zone of inhibition at 250 µg/mL (Staphylococcus aureus [26]): 8 mm; zone of inhibition at 250 µg/mL (Pseudomonas aeruginosa [27]): 10 mm; zone of inhibition at 100 µg/mL (Pseudomonas aeruginosa [28]): 7 mm; zone of inhibition at 1250 µg/mL (Micrococcus luteus [29]): 16 mm; zone of inhibition at 1000 µg/mL (Micrococcus luteus [30]): 14 mm; zone of inhibition at 750 µg/mL (Micrococcus luteus [31]): 11 mm; zone of inhibition at 100 µg/mL (Pseudomonas fluorescens [32]): 7 mm; zone of inhibition at 1250 µg/mL (Escherichia coli [33]): 18 mm; zone of inhibition at 750 µg/mL (Escherichia coli [34]): 13 mm; zone of inhibition at 500 µg/mL (Escherichia coli [35]): 12 mm; zone of inhibition at 250 µg/mL (Escherichia coli [36]): 10 mm; zone of inhibition at 100 µg/mL (Escherichia coli [37]; MTCC 1573, 48 h, read-out: DIZ): 8 mm; zone of inhibition at 1000 µg/mL (Pseudomonas aeruginosa [38]): 17 mm; zone of inhibition at 500 µg/mL (Pseudomonas aeruginosa [39]): 13 mm
